Values of other authors, collected in patent US20230285429A1, “CANNABINOID ACID FORMULATIONS, DELIVERY SYSTEMS, AND METHODS OF USE” (Flora Growth U.S. Holdings Corp., priority 2022, published 2023).

Tested on: pseudovirus expressing the spike protein
Details: human epithelial cell lines, CBGA or CBDA individually

Structure (SMILES): CCCCCc1cc(O)c(C/C=C(\C)CCC=C(C)C)c(O)c1C(=O)O [CBGA, cannabigerolic acid]
- infection by pseudovirus expressing the spike protein: reduce infection

Structure (SMILES): C=C(C)[C@@H]1CCC(C)=C[C@H]1c1c(O)cc(CCCCC)c(C(=O)O)c1O [CBDA, cannabidiolic acid]
- infection by pseudovirus expressing the spike protein: reduce infection
